# ChEMBL document CHEMBL2163248, “Classification of inhibitors of hepatic organic anion transporting polypeptides (OATPs): influence of protein expression on drug-drug interactions” (J Med Chem, 2012)
# *1 amine or outer side, *2 acyl side, *3 side chain or, on linkers, in order; H or OH if unused. Where a SMILES comes first, the peptide text is derived from it. Bridges are numbered along the chain shown (N, C = ends). [ ]: non-standard residue; d: D form. Trp(2-yl) = O=C([C@H](Cc1c([*:3])[nH]c2ccccc12)N[*:1])[*:2]; Leu(4R-OH,5-OH) = C[C@](O)(CO)C[C@H](N)C(=O)O; cisHyp = O=C(O)[C@@H]1C[C@H](O)CN1
# Assays:
# [1] = biological target: T1, Solute carrier organic anion transporter family member 2B1 (Homo sapiens, UniProt O94956); experiment: Inhibition of human liver OATP2B1 expressed in HEK293 Flp-In cells assessed as reduction in [3H]E3S uptake at 20 uM incubated for 5 mins by scintillation counting; conditions: hek293, 5 min
# T1 sequence (O94956 whole entry): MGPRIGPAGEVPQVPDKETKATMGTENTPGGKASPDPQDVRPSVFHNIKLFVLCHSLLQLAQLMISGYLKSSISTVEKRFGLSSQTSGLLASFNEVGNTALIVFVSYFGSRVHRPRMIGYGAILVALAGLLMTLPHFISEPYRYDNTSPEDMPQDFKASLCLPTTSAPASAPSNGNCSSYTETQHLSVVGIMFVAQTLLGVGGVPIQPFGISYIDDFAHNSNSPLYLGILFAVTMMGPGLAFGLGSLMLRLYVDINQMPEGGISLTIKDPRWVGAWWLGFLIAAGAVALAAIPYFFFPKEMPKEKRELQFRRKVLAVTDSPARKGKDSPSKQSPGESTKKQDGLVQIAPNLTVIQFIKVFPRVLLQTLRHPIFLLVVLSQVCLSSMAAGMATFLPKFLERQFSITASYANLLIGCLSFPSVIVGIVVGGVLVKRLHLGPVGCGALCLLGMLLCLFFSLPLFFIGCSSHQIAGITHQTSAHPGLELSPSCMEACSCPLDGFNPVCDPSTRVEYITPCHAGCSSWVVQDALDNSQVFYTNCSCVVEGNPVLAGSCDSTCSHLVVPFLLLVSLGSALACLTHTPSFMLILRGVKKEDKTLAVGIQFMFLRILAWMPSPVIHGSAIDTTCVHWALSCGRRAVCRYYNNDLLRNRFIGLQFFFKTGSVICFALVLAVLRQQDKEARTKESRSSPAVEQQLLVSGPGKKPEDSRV
# [2] = biological target: T2, Solute carrier organic anion transporter family member 1B1 (Homo sapiens, UniProt Q9Y6L6); experiment: Inhibition of human liver OATP1B1 expressed in HEK293 Flp-In cells assessed as reduction in E17-betaG uptake at 20 uM by scintillation counting; conditions: hek293, 20 µM
# T2 sequence (Q9Y6L6 whole entry): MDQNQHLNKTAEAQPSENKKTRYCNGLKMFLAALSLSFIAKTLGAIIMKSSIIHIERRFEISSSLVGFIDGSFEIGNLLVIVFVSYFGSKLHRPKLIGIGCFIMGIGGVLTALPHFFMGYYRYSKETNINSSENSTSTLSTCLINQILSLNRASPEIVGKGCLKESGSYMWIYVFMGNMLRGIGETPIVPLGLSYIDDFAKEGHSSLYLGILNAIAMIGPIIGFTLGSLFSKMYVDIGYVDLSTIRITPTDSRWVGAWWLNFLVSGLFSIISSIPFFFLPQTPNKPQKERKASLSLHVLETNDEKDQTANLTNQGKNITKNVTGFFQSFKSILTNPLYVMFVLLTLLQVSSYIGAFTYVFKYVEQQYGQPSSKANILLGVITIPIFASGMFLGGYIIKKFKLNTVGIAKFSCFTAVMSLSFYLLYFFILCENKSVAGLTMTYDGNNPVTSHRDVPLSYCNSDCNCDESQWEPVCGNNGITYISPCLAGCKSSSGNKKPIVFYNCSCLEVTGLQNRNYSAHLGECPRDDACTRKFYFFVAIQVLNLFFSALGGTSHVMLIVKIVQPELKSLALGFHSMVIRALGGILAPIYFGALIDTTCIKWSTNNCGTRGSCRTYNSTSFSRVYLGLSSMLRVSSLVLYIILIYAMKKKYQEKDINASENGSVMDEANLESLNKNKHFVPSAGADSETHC
# [3] = biological target: T3, Solute carrier organic anion transporter family member 1B3 (Homo sapiens, UniProt Q9NPD5); experiment: Inhibition of human liver OATP1B3 expressed in HEK293 Flp-In cells assessed as reduction in [3H]E17-betaG uptake at 20 uM incubated for 5 mins by scintillation counting; conditions: hek293, 5 min
# T3 sequence (Q9NPD5 whole entry): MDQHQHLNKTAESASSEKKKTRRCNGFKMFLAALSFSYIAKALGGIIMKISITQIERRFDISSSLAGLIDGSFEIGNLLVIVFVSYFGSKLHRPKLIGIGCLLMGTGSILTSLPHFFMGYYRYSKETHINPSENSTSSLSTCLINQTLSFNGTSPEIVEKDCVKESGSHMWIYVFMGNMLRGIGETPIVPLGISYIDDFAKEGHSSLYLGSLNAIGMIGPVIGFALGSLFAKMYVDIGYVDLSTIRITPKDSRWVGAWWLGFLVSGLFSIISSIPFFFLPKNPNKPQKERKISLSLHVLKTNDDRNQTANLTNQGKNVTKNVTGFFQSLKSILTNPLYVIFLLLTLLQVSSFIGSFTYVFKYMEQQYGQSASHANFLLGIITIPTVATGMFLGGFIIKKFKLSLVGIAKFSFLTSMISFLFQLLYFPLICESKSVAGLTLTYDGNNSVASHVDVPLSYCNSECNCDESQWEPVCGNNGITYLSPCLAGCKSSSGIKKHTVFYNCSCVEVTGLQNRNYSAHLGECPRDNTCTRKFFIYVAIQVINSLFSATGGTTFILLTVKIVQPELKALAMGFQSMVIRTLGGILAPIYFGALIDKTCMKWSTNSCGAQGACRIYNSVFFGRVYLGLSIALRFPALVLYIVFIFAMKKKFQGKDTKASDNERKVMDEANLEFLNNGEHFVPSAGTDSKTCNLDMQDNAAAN
SMILES,INH [1] [%],INH [2] [%],INH [3] [%]
Cc1ncc2n1-c1ccc(Cl)cc1C(c1ccccc1F)=NC2 [MIDAZOLAM],22.7,32.9,6.7
CC#C[C@]1(O)CC[C@H]2[C@@H]3CCC4=CC(=O)CCC4=C3[C@@H](c3ccc(N(C)C)cc3)C[C@@]21C [MIFEPRISTONE],70.7,81.2,80.3
O=C1c2c(O)ccc(O)c2C(=O)c2c(NCCNCCO)ccc(NCCNCCO)c21 [MITOXANTRONE],48.3,27.2,67.9
CN(C)C(=O)CCSC(SCCC(=O)O)c1cccc(/C=C/c2ccc3ccc(Cl)cc3n2)c1 (stereo not given) [MK-571],75.2,88.5,80.7
O=C(NCCN1CCOCC1)c1ccc(Cl)cc1 [MOCLOBEMIDE],27.5,1.7,-3.3
O=c1c(O)c(-c2ccc(O)cc2O)oc2cc(O)cc(O)c12 [MORIN],71.3,85.2,78.5
O=C1C[C@@H](c2ccc(O)cc2)Oc2cc(O)cc(O)c21 [NARINGENIN],32.4,34.8,-57.2
C[C@@H]1O[C@@H](O[C@H]2[C@H](Oc3cc(O)c4c(c3)O[C@H](c3ccc(O)cc3)CC4=O)O[C@H](CO)[C@@H](O)[C@@H]2O)[C@H](O)[C@H](O)[C@H]1O [NARINGIN],47.1,34,37.7
CCc1nn(CCCN2CCN(c3cccc(Cl)c3)CC2)c(=O)n1CCOc1ccccc1 [NEFAZODONE],61.5,12,61.4
COC(=O)C1=C(C)NC(C)=C(C(=O)OCCN(C)Cc2ccccc2)C1c1cccc([N+](=O)[O-])c1 (stereo not given) [NICARDIPINE],31.8,65.1,10.1
CN1CCC[C@H]1c1cccnc1 [NICOTINE],-16.5,6.9,11
CNC(=O)c1cccnc1 [NICOTINYL METHYLAMIDE],14.5,71.4,-0.5
C=C(C)[C@@H]1CCC2=CC(=O)C[C@@H](C)[C@]2(C)C1 [NOOTKATONE],-72.2,25.6,-3.2
CO[C@@H]1[C@@H](OC(N)=O)[C@@H](O)[C@H](Oc2ccc3c(O)c(NC(=O)c4ccc(O)c(CC=C(C)C)c4)c(=O)oc3c2C)OC1(C)C [NOVOBIOCIN],85.6,58.1,84.2
COc1ccc2[nH]c([S+]([O-])Cc3ncc(C)c(OC)c3C)nc2c1 (stereo not given) [OMEPRAZOLE],11.3,15.9,29.5
C[C@@H]1O[C@@H](O[C@H]2C[C@@H](O)[C@]3(CO)[C@H]4[C@H](O)C[C@]5(C)[C@@H](C6=CC(=O)OC6)CC[C@]5(O)[C@@H]4CC[C@]3(O)C2)[C@H](O)[C@H](O)[C@H]1O [OUABAIN],-24.1,50.5,20.5
COc1ccnc(C[S+]([O-])c2nc3ccc(OC(F)F)cc3[nH]2)c1OC (stereo not given) [PANTOPRAZOLE],17.3,15.2,23.4
Fc1ccc([C@@H]2CCNC[C@H]2COc2ccc3c(c2)OCO3)cc1 [PAROXETINE],37.5,33,12.7

SMILES,INH [1] [%],INH [2] [%],INH [3] [%]
CC1(C)S[C@@H]2[C@H](NC(=O)Cc3ccccc3)C(=O)N2[C@H]1C(=O)O [PENICILLIN G],7.6,8.8,40.9
"C[C@@H]1NC(=O)[C@H](C[C@@](C)(O)CO)NC(=O)[C@@H]2Cc3c([nH]c4ccccc34)SC[C@H](NC(=O)[C@@H]([C@H](C)O)NC1=O)C(=O)N1C[C@@H](O)C[C@H]1C(=O)N[C@@H](C)C(=O)N2 [PHALLOIDIN] (cyclo(A[dT]C[cisHyp]A[Trp(2-yl)][Leu(4R-OH,5-OH)]); thioether 3-6)",24.1,26.1,36.2
CCOc1ccc(NC(C)=O)cc1 [PHENACETIN],-0.1,34.2,-0.9
[H]/N=C(/N)N/C(=N/[H])NCCc1ccccc1 [PHENFORMIN],16.7,34.5,-2.3
CCC1(c2ccccc2)C(=O)NC(=O)NC1=O [PHENOBARBITAL],11,-3.9,7.3
Cc1cccc(C)c1NC(=O)CC12CCCN1CCC2 [PILSICAINIDE],10.8,11.2,-16.8
CC(C)NCC(O)COc1cccc2[nH]ccc12 (stereo not given) [PINDOLOL],-10.8,-24.7,24.5
CCc1ccc(CCOc2ccc(CC3SC(=O)NC3=O)cc2)nc1 (stereo not given) [PIOGLITAZONE],-9.9,21.9,5.6
CN1C(C(=O)Nc2ccccn2)=C(O)c2ccccc2S1(=O)=O [PIROXICAM],68.3,16.2,23.5
O=C(O)C[C@H](O)C[C@H](O)/C=C/c1c(C2CC2)nc2ccccc2c1-c1ccc(F)cc1 [PITAVASTATIN],63.7,97.4,94.3
COc1cc2nc(N3CCN(C(=O)c4ccco4)CC3)nc(N)c2cc1OC [PRAZOSIN],1,25.1,36.1
C[C@]12C=CC(=O)C=C1CC[C@@H]1[C@@H]2[C@@H](O)C[C@@]2(C)[C@H]1CC[C@]2(O)C(=O)CO [PREDNISOLONE],27.6,2.3,9.6
CCN(CC)CCNC(=O)c1ccc(N)cc1 [PROCAINAMIDE],17.8,21.6,3.4
CC(=O)[C@H]1CC[C@H]2[C@@H]3CCC4=CC(=O)CC[C@]4(C)[C@H]3CC[C@]12C [PROGESTERONE],-362.6,63.9,33.4
CC(C)NCC(O)COc1cccc2ccccc12 (stereo not given) [PROPRANOLOL],10.1,8.9,12.8
O=c1c(O)c(-c2ccc(O)c(O)c2)oc2cc(O)cc(O)c12 [QUERCETIN],72.6,77,21.6
COc1ccccc1OCC(O)CN1CCN(CC(=O)Nc2c(C)cccc2C)CC1 (stereo not given) [RANOLAZINE],41.6,4.3,-14.9
